Results: US7884115B2, “Methods and compositions for the treatment of pain and other neurological conditions” (Allergan, Inc., priority 2004, dated 2011)
Entries after “also recorded” stand apart in the source; their conditions may differ.

Columns and labels:
[1] = system: allodynia induced by phenylephrine (PE); test: Mouse phenylephrine (PE) model of allodynia; format: in vivo
Protocol: (§1) In variants of this model, allodynia can be induced using 100 ng N-methyl-D-aspartate (NMDA) in DMSO intrathecally, or IP phenylephrine (PE) 100 ng/kg formulated in dH2O. In either model, the compounds are formulated in d-H2O and given in a volume of 1 ml/kg body weight for intraperitoneal (IP) dosing. Six mice per group are rendered allodynic by injection of one of the following agents: 300 ng/kg sulprostone in DMSO IP, 100 ng/kg phenylephrine (PE) in dH2O IP, or 100 ng NMDA in DMSO intrathecally (IT). Fifteen minutes before administration of the allodynia-inducing agents, the experimental mice are given 1 mg/kg NB-DNJ. Thirty (30) minutes following administration of NB-DNJ, the allodynic response is monitored as described by brushing the flank of each mouse with a paint brush. Five to six mice per group are rendered allodynic by injection of one of the following: 300 ng/kg sulprostone IP, 100 ng/kg phenylephrine (PE) IP, or 100 ng NMDA intrathecally (IT). Fifteen minutes prior to the induction of allodynia, the mice are given D-glucaro-delta-lactam IP at […], or 1 mg/kg. PE or NMDA-treated mice are given 1 mg/kg D-glucaro-delta-lactam IP.

[2] = system: allodynia induced by N-methyl-D-aspartate (NMDA); test: Mouse NMDA model of allodynia; format: in vivo
Protocol: as §1, with “brush. Six mice per group are given one of the following: given 100 μg/kg NB-DNJ, 300 μg/kg NB-DNJ, 1 mg/kg NB-DNJ, or 3 mg/kg 1-deoxynojirimycin. After 15 minutes the mice are rendered allodynic by injection of 200 ng NMDA in DMSO IT. Starting thirty (30) minutes following administration of NB-DNJ, the allodynic response of each mouse is monitored by brushing the flank of the mouse with a paint brush.” for “brush.”

[3] = cited from earlier work
[4] = system: primary rat brain cortical neurons treated with NMDA plus D-serine; test: NMDA/serine-induced excitotoxicity in primary cortical neurons (LDH release); format: cell-based; settings: 20 μM NMDA plus 10 μM D-serine, 3 h or 16 h preincubation; FIGS. 8A and 8B
Protocol: (§2) Primary rat brain cortical neurons were cultured as follows. In brief, rat cerebral cortices were removed from brains of the 16 day-old-fetal rats. The neocortices were gently triturated and plated on 24 well plates (300,000 viable cells/cm2) in plating Modified Eagle's Medium (MEM) supplemented with 10% horse serum, 10% fetal calf serum and 2 mM L-glutamine. Cultures were maintained at 37 C in a humidified 5% CO2 atmosphere.
After 4 days' growth (DIV 4), half of the medium was replaced by a medium identical to the plating medium but lacking calf serum. At DIV4, 10 μM 5-fluoro-2-deoxyuridine was included to each well to halt overgrowth of glia. Mixed cultures of neurons and glia were then fed at DIV7 and DIV11 with MEM plus 5% horse serum previously conditioned by growth with cortical astrocytes for 24 h. […]
(§3) Under the experimental conditions used, i.e. after 6 hours addition of excitotoxic agent, 40% toxicity is generally observed and measured by determination of the amount of lactate dehydrogenase (LDH) released into the medium following membrane degradation. […] Overall cell injury was assessed microscopically under phase-contrast optics or by measuring amount of LDH released into the bathing medium 24 hr after neurotoxic insults (see, e.g., Koh and Choi, J. NEUROSCI. METHODS 20: 83-90, 1987), hereby incorporated by reference herein. […]

[5] = system: primary rat brain cortical neurons; test: Intrinsic cytotoxicity in neuronal cultures; format: cell-based
Protocol: as §2
(§4) After 4 days' growth (DIV 4), half of the medium was replaced by a medium identical to the plating medium but lacking calf serum. At DIV4, 10 μM 5-fluoro-2-deoxyuridine was included to each well to halt overgrowth of glia. Mixed cultures of neurons and glia were then fed at DIV7 and DIV11 with MEM plus 5% horse serum previously conditioned by growth with cortical astrocytes for 24 h.
as §3

[6] = system: primary rat brain cortical neurons treated with kainate; test: Kainate-induced excitotoxicity in primary cortical neurons (LDH release); format: cell-based
Protocol: as §2, §4
Excitotoxicity was induced in these cells by addition of 50 μM kainate or 20 μM N-methyl-D-aspartate plus 10 μM D-serine to each well.
Under the experimental conditions used, i.e. after 6 hours addition of excitotoxic agent, 40% toxicity is generally observed and measured by determination of the amount of lactate dehydrogenase (LDH) released into the medium following membrane degradation. Such assay methods are well-known; a kit for conducting a homogeneous form of the LDH assay format is sold by Promega under the name CytoTox ONE® Homogenous Membrane Integrity Assay. Overall cell injury was assessed microscopically under phase-contrast optics or by measuring amount of LDH released into the bathing medium 24 hr after neurotoxic insults (see, e.g., Koh and Choi, J. NEUROSCI. METHODS 20: 83-90, 1987), hereby incorporated by reference herein.
[…] The final results are normalized optical density (OD) values (treated cells/untreated control cells), where a value of 1 represents 100% neuronal survival and a value of 0.6 represents 60% survival.

Q: For O=C(O)[C@H]1NC(=O)[C@H](O)[C@@H](O)[C@@H]1O [D-glucaro-delta-lactam], which analgesic effect ([1]; 1 mg/kg IP, 15 min before PE 100 ng/kg IP, FIG. 4) is on record?
A: Its analgesic effect is “able to achieve an analgesic effect”.

Q: What about the analgesic effect ([2]; 1 mg/kg IP, 15 min before NMDA 100 ng IT, FIG. 4) of the same compound?
A: Its analgesic effect is “able to achieve an analgesic effect”.

Q: Which aqueous solubility [3] does the source give for CCCCN1C[C@H](O)[C@@H](O)[C@H](O)[C@H]1CO [NB-DNJ, N-butyl-1-deoxy-nojirimycin] here?
A: Its aqueous solubility is “greater than 1000 mg/ml”.

Q: What about the “reversal of the allodynic response” value ([1]; 1 mg/kg given 15 min before PE 100 ng/kg IP, FIG. 1) of the same compound?
A: Its value is “no reversal”.

Q: What about the neuronal death [4] of the same compound?
A: Its neuronal death is “reduced neuronal death in a dose-dependent manner”.

Q: And the “pain reduction at different doses” value ([2]; 100 μg/kg, 300 μg/kg, 1 mg/kg, 15 min before 200 ng NMDA IT, FIG. 2)?
A: The value was “dose response”.

Q: What about the “reversal of the allodynic response” value ([2]; 1 mg/kg given 15 min before NMDA 100 ng IT, FIG. 1) of the same compound?
A: Its value is “significant reversal”.

Q: What about the intrinsic cytotoxicity [5] of the same compound?
A: Its intrinsic cytotoxicity is “do not show any significant intrinsic cytotoxicity”.

Q: What about the “attenuation of kainate-induced excitotoxicity” value ([6]; 50 μM kainate, compound added without pre-incubation, FIG. 7A) of the same compound?
A: Its value is “attenuation of kainate-induced excitotoxicity; also recorded: active without any preincubation”.

Q: And the neuronal death ([6]; kainate-induced toxicity, various concentrations)?
A: The neuronal death was “reduced neuronal death in a dose-dependent manner”.
